Assay results taken from patent publication US8946413B2 (Pfizer Inc., priority 2008, dated 2015).
Like-named read-outs stand apart in the source and are kept apart here.

Legend:
CCR2 = target: T1, CCR2 (Homo sapiens, UniProt P41597); assay: hCCR2 (125-I hMCP-1) small molecule binding assay on human PBMCs; conditions: 125I-MCP-1, human PBMCs
T1 construct: (leukophoresis pack); host or cells: human peripheral blood mononuclear cells (PBMCs) from a normal human leukophoresis pack
Method in brief: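 Ficoll-isolated human PBMCs pre-incubated 30 min or 1 h with compound at 0.333 μM final (0.67% DMSO), then incubated 30 min at room temperature with 150 pM 125I-hMCP-1 in RPMI/0.1% BSA/20 mM HEPES. Filter-bound radioactivity counted by gamma counter. 100% inhibition defined with 1 μM hMCP-1; IC50 plates run n=2.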

[1] = system: streptozotocin (STZ)-induced diabetic rat model; assay: Diabetic nephropathy rat model (STZ-induced), 24-hour urinary albumin excretion; type: in vivo; conditions: STZ diabetic male Wistar rats
Excerpt: A rat model of diabetic nephropathy was used to determine the renal protective effect of pharmacological inhibition of CCR2. The streptozotocin (STZ)-induced diabetic rat model has been extensively used for studying the progression of diabetic renal disease. STZ injection causes immediate destruction of pancreatic β-cells, consequently hyperglycemia and progression of nephropathy similar to that seen in human diabetes mellitus. Diabetes was induced in male Wistar rats by single administration of STZ (45 mp/kg, iv). Three days after the induction of diabetes, fasting blood glucose levels were assessed. Animals with fasting blood glucose levels higher than 200 mg/dL were included in the study. All the treatments were then initiated. 1,5-anhydro-2,3-dideoxy-3-{[(1R,3S)-3-isopropyl-3-({(1S,4S)-5-[6-(trifluoromethyl)pyrimidin-4-yl]-2,5-diazabicyclo[2.2.1]hept-2-yl}carbonyl)cyclopentyl]amino}-4-O-methyl-D-erythro-pentitol was administered at doses of 0.03, 0.3, 1, and 10 mg/kg (mpk) (in the chow) for 11 weeks. 24-hour urine collections were obtained at 1, 4, 8, and 11 weeks after the treatment for assessing 24-hour urinary albumin excretion (UAE).

[2] = 30 min preincubation, read-out: IC50 (nM) 30 min preinc

T1 sequence (P41597 whole entry): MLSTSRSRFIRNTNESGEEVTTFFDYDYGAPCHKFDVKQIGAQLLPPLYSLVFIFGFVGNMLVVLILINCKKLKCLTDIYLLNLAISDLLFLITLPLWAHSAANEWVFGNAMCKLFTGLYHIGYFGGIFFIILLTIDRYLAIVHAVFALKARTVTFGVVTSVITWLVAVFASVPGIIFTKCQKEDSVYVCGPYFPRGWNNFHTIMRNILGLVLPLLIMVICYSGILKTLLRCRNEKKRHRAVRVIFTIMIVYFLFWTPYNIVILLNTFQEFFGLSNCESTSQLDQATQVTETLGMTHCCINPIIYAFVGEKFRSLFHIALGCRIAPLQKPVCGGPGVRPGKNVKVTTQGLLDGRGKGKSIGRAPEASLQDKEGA

| IC50 (CCR2; [2]) [nM] | IC50 (CCR2; 1 hr preincubation, read-out: IC50 (nM) 1 hr preinc) [nM] | Structure (SMILES) | 24-hour urinary albumin excretion (UAE) ([1]; 0.03 mpk in the chow, week 11) [mg/24 h] | 24-hour urinary albumin excretion (UAE) ([1]; 0.3 mpk in the chow, week 8) [mg/24 h] | 24-hour urinary albumin excretion (UAE) ([1]; 0.3 mpk in the chow, week 11) [mg/24 h] | 24-hour urinary albumin excretion (UAE) ([1]; 1 mpk in the chow, week 8) [mg/24 h] | 24-hour urinary albumin excretion (UAE) ([1]; 1 mpk in the chow, week 11) [mg/24 h] | 24-hour urinary albumin excretion (UAE) ([1]; 10 mpk in the chow, week 8) [mg/24 h] | 24-hour urinary albumin excretion (UAE) ([1]; 10 mpk in the chow, week 11) [mg/24 h] |
| --- | --- | --- | --- | --- | --- | --- | --- | --- | --- |
| 25.4 | 3.68 | CO[C@@H]1COCC[C@@H]1N[C@@H]1CC[C@@](C(=O)N2C[C@@H]3C[C@H]2CN3c2cc(C(F)(F)F)ncn2)(C(C)C)C1 [Example 13, 1,5-anhydro-2,3-dideoxy-3-{[(1R,3S)-3-isopropyl-3-({(1S,4S)-5-[6-(trifluoromethyl)pyrimidin-4-yl]-2,5-diazabicyclo[2.2.1]hept-2-yl}carbonyl)cyclopentyl]amino}-4-O-methyl-D-erythro-pentitol] | 2.17±1.31 | 1.73±0.69 | 1.96±0.85 | 1.09±0.20 | 1.66±0.65 | 0.71±0.22 | 1.02±0.32 |
| 3.7 |  | CO[C@@H]1COCC[C@@H]1N[C@@H]1CC[C@@](C(=O)N2C[C@@H]3C(F)[C@H]2CN3C(=O)OC(C)(C)C)(C(C)C)C1 (stereo partly drawn) [Example 71, tert-butyl 7-fluoro-5-((1S,3R)-1-isopropyl-3-((3S,4S)-3-methoxy-tetrahydro-2H-pyran-4-ylamino)cyclopentanecarbonyl)-2,5-diaza-bicyclo[2.2.1]heptane-2-carboxylate] |  |  |  |  |  |  |  |
